Assays:
[1] = test system: An. gambiae early 4th instar larvae; assay: Larval mosquito movement assay (Daniovision-Ethovision); type: in vivo, Anopheles gambiae
Method: Next, the agonist activity of the VUAA compound class was tested to establish the involvement of AgORs in mediating larval ortho and klinokinesis in response to a series of semiochemicals using larval-stage An. gambiae mosquitoes. Mosquito larvae are aquatic, thus compounds can be delivered to individual early 4th instar larvae regardless of volatility. The assay currently utilizes 6-well plates and the Daniovision-Ethovision platform (Noldus Inc.) to simultaneously record and analyze 6 larvae, thereby providing modest rates of throughput and a high degree of reproducibility. In these assays, larval movements are automatically quantified over 5-minute period and control larvae consistently move the same number of times in the presence or absence of 0.1% DMSO (p=0.80, n=31) (FIGS. 42-43). Furthermore, the effects of the widely-used synthetic insect repellent N, N-diethyl-meta-toluamide (DEET) was tested and DEET was also observed to increase larval movements at and above a threshold concentration of 5×10^−4M (p=0.013, n=27) (FIGS. 42-43).

[2] = biological target: T1, AgORco (Anopheles gambiae, UniProt Q7QCC7); assay: Single-channel recording, outside-out patches from AgORco-expressing HEK293 cells; type: biochemical
T1 construct: expressed in transfected cells
T1 sequence (Q7QCC7 1-478): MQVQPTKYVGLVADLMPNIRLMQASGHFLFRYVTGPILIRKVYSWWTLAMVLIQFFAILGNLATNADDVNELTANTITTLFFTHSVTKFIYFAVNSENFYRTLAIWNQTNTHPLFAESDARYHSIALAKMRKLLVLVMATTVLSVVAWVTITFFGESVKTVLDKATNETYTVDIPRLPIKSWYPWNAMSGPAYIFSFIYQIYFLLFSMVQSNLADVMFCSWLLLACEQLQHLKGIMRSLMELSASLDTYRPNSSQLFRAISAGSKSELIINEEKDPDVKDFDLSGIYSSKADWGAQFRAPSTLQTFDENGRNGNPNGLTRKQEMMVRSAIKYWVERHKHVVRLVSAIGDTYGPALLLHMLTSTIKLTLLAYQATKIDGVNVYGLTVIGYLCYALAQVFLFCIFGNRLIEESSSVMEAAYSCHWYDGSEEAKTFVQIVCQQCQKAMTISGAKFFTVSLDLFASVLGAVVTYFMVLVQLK
Method: Currents from OR-expressing HEK293 cells were amplified with an Axopatch 200b Amplifier (Axon Instruments) and digitized through a Digidata 1322A (Axon Instruments). Electrophysiological data was recorded and analyzed using pCLAMP 10 (Axon Instruments). Electrodes were fabricated from quartz tubing (Sutter Instruments) and pulled to 4-6 MiΩ for whole cell recording. Electrodes were filled with internal solution (120 mM KCl, 30 mM D-glucose, 10 mM HEPES, 2 mM MgCl2, 1.1 mM EGTA, and 0.1 CaCl2) (pH 7.35, 280 mOsm). External (bath) solution contained 130 mM NaCl, 34 mM D-glucose, 10 mM HEPES, 1.5 mM CaCl2), 1.3 mM KH2PO4, and 0.5 MgSO4 (pH 7.35, 300 mOsm). Compounds were diluted in external solution and locally perfused to the recording cell using Perfusion Pencil (Automate Scientific) and controlled by a ValveLink 8.2 controller (Automate Scientific). Whole cell recordings were sampled at 10 kHz and filtered at 5 kHz. Outside-out patches were obtained using 10-15MΩ electrodes pulled from standard glass capillaries (World Precision Instruments) and fire-polished with an MF-830 micro forge (Narishige). Single channel recordings were sampled at 20 kHz. Recordings were reduced to 1 kHz and low-pass filtered at 500 Hz for display and analysis using QuB (SUNY at Buffalo). […]

[3] = test system: Un-transfected HEK293 cells; assay: Whole-cell patch clamp, un-transfected HEK293 control cells; type: cell-based, human
Method: Currents from OR-expressing HEK293 cells were amplified with an Axopatch 200b Amplifier (Axon Instruments) and digitized through a Digidata 1322A (Axon Instruments). Electrophysiological data was recorded and analyzed using pCLAMP 10 (Axon Instruments). Electrodes were fabricated from quartz tubing (Sutter Instruments) and pulled to 4-6 MiΩ for whole cell recording. Electrodes were filled with internal solution (120 mM KCl, 30 mM D-glucose, 10 mM HEPES, 2 mM MgCl2, 1.1 mM EGTA, and 0.1 CaCl2) (pH 7.35, 280 mOsm). External (bath) solution contained 130 mM NaCl, 34 mM D-glucose, 10 mM HEPES, 1.5 mM CaCl2), 1.3 mM KH2PO4, and 0.5 MgSO4 (pH 7.35, 300 mOsm). Compounds were diluted in external solution and locally perfused to the recording cell using Perfusion Pencil (Automate Scientific) and controlled by a ValveLink 8.2 controller (Automate Scientific). Whole cell recordings were sampled at 10 kHz and filtered at 5 kHz. Outside-out patches were obtained using 10-15MΩ electrodes pulled from standard glass capillaries (World Precision Instruments) and fire-polished with an MF-830 micro forge (Narishige). Single channel recordings were sampled at 20 kHz. Recordings were reduced to 1 kHz and low-pass filtered at 500 Hz for display and analysis using QuB (SUNY at Buffalo).

[4] = test system: CO2 sensitive CpA neuron (does not express AgORco); assay: Single sensillum recording, capitate peg sensilla, CpA neuron; type: in vivo, Anopheles gambiae; conditions: CO2 pulse at completion of assay
Method: Single sensillum recordings were performed on 4-7 day old, non-bloodfed Anopheles gambiae females maintained on 10% sucrose and a 12/12 light dark cycle. Legs, wings and antennae were removed from cold-anesthetized females that were then restrained on double-stick tape with thread. A glass reference electrode filled with Sensillar lymph ringers (SLR)(Xu, 2005) was placed in the eye and the recording electrode filled with DMSO or VUAA1 diluted in SLR was used to puncture sensilla at their base. Responses were recorded and digitized using a Syntech IDAC-4 and analyzed with AutoSpike software (Syntech). New glass recording pipettes were used for every recording. Data was sampled at 12 kHz.
The inventors next performed single unit, extracellular electrophysiological recordings on adult female An. gambiae to determine whether VUAA1 could activate AgORco-expressing odorant receptor neurons (ORNs) in vivo. ORNs, which express AgORco and a conventional OR are enclosed within the hair-like sensilla present on olfactory tissues. […] CpA is clearly distinguished from CpB/C by its large action potential amplitude. The action potential amplitudes of CpB and CpC are much smaller and in some preparations indistinguishable from each other; as a result, the spike activity of CpB and CpC neurons were binned for data analysis. […]

CCc1ccc(NC(=O)CSc2nnc(-c3cccnc3)n2CC)cc1 [VUAA1, 2-((4-ethyl-5-(pyridin-3-yl)-4H-1,2,4-triazol-3-yl)thio)-N-(4-ethylphenyl)acetamide]
larval movements at higher concentration ([1]; 5×10^−5M): larval movements were observed to decrease
larval response in AgOrco siRNA-treated larvae ([1]; AgOrco siRNAs injected 48 h before, vs buffer-injected control): no longer responsive
increase over the response threshold of DEET ([1]; in vivo): 5 orders of magnitude
threshold concentration for increased larval movement ([1]; movements over 5-minute period): 5 nM
average unitary current of AgORco ([2]; VUAA1-evoked, mean±st. dev.): 1.3±0.3 pA
channel opening probability P0 ([2]; during 5 s application of −4.0 log M VUAA1, patch held at −60 mV): 0.38
whole-cell current response [3]: did not respond
CpA neuron activity [4]: unchanged

Source: patent US11484032B2, “Compositions for inhibition of insect sensing” (Vanderbilt University, priority 2011, dated 2022)
